The record followed here is US10112881B2, “Skin lightening compounds” (WiSys Technology Foundation, Inc., priority 2014, dated 2018).

For data set [1], the system named is Mouse melanoma cell line B16-F10. The data set is described as follows: Mouse melanoma cell proliferation (cell count after 48 hours). It is filed as cell-based. From the text: (§1) Mouse melanoma cell line B16-F10 is a commonly used mammalian cells for melanogenesis and melanocyte studies. […] MoTP. […] The two graphs on top are cell number per 0.5 cubic mm. The Y axis in the lower two graphs is absorbance of 490 nm visible light by melanin. Higher absorbance means more melanin.
(§2) In this experiment, we first seeded approximately the same number of cells in each well of the 24-well plate supplied with fresh complete growth medium with different skin lightening compound. After 48 hours of incubation, we counted the cell numbers to evaluate the cell proliferation and lysed the cells from additional identically set-up wells and measured the total amount of melanin in treated melanoma.

Data set [2] relates to purified tyrosinase from mushroom. In words: In vitro tyrosinase assay (L-tyrosine to DOPAchrome, absorbance 490 nm). It is filed as biochemical. To be noted: absorbance at 490 nm at 20', 60' and 120' of reaction. From the text:
The assay is set up by mixing purified tyrosinase from mushroom with L-tyrosine with or without test chemical. Active tyrosinase will turn L-tyrosine into DOPAchrome which is orange color. The absorbance at 490 nm which reflects the amount of DOPAchrome and thus the tyrosinase activity was taken at 20′, 60′ and 120′ of reaction.
Most of the current skin-lightening compounds reduce pigment by inhibiting the melanin synthesis enzyme called tyrosinase (FIG. 5). […] The assay is usually done by mixing purified tyrosinase from mushroom with L-tyrosine, which is the substrate of tyrosinase, and with or without test chemical. Reaction with active tyrosinase will quickly turn L-tyrosine into a color product called dopachrome which is an intermediate product in the melanin synthesis pathway. The amount of dopachrome can be measured by a spectrophotometer at A490 nm visible light.

Data set [3] has as its system zebrafish embryos. The conditions noted are these: embryos incubated 24 to 72 hpf. As for the experimental part: Zebrafish embryos were incubated in compounds from 24 hpf (hours post fertilization) to 72 hpf.
(§3) The testing protocols for these compounds are as follows: • a. To test the inhibition of pigment formation, the zebrafish embryos were treated with the drugs from 24 to 72 hours post-fertilization (hpf). The embryos were monitored and imaged throughout their development to track the development of melanin pigment relative to a control group to which water was administered (Protocol 1). • b. […] The embryos were again monitored and imaged throughout their development relative to a control group to which water was administered (Protocol 2). • c. Additionally, to test the ability of the pigment to recover after being treated with our drugs, all embryos were treated at 24 hpf with the chemicals until the 68 hpf or 72 hpf time period, then washed with water to remove the treatment. The embryos were again monitored and imaged throughout their development relative to a control group to which water was administered (Protocol 3). Comparison of Skin-Lightening Compounds
The black pigment (or melanin) is very easy to observe in zebrafish. In brief, adult zebrafish are taken to breed embryos. Morphologically normal embryos of 24 hours post fertilization (hpf) stage will be selected for incubation in the drugs from 24 to 72 hours. During the incubation, the embryos are monitored and imaged (see FIG. 1) to track the development of melanin. […] To broaden the comparison with other skin-lightening products, this project can also test other compounds, kojic acid, gallic acid, (2-Morpholinobutyl)-4-thiophenol/MoTP and Haginin/phenoxidiol. […] In the meantime, the whole organism context also allows us to examine the toxicological profile, if any, of these compounds. The same protocol is also used for the experiments using the melanoma forming zebrafish.

Data set [4] relates to zebrafish embryos. The data set is described as follows: Reduction of existing pigment in zebrafish embryos (Protocol 2). It is filed as in vivo. The conditions noted are these: embryos incubated from 48 hpf to 68 hpf. As for the experimental part:
Embryos were incubated in compounds from 48 hpf when some pigments already formed to 68 hpf.
as §3
Thus, we compared the compound effect on existing pigment using older embryos at 48 hpf. The embryos were again monitored and imaged throughout their development according to Protocol 2.

Data set [5] concerns Mouse melanoma cell line B16-F10. In words: Melanin content of mouse melanoma cells (absorbance 490 nm). In kind it is cell-based. The conditions noted are these: 48 hours.
Text: as §1, §2

The test system of data set [6] is zebrafish embryos. The data set is described as follows: Apoptosis labeling in compound-treated embryos. In kind it is in vivo. The conditions noted are these: fluorescence/enzymatic labeling. From the text: FIGS. 7A-7B are photographs and an associated graph illustrating the cell death by skin lightening compounds. Embryos treated with skin lightening compounds were fixed and processed for enzymatic labeling for apoptosis.
Although it is rare, one compound MoTP was reported to cause cell death specifically in melanocyte. We tested whether other skin lightening compounds can also cause melanocyte cell death. Using a fluorescence labeling assay, we were able to detect the apoptotic cells. Although we were not able to specifically identify apoptotic melanocyte due to technical difficulties, we were able to evaluate the overall cell death in the compound treated embryos.

In another data set the test system is dct mRNA. The data set is described as follows: Quantitative PCR of dct mRNA in treated embryos. It is filed as in vivo, zebrafish. To be noted: qPCR. From the text: (§4) We also carried out qPCR to measure the dct mRNA expression.
Background: Quantitative PCR measures a nucleic acid by following its amplification.

Data set [7] relates to dct-expressing cells (melanocyte precursors). The data set is described as follows: In situ hybridization for dct-expressing cells. In kind it is in vivo, zebrafish. The conditions noted are these: cell counts.
Text: The cDNA of these genes was cloned and used to generate anti-sense RNA probes.
as §4

The test system of data set [8] is zebrafish embryos. In words: Pigment recovery after chemical withdrawal (Protocol 3). The conditions noted are these: treated 24-72 hpf, washed, imaged 24 hours after wash. In kind it is in vivo. As for the experimental part: FIG. 4 are photographs of the pigment recovery after chemical withdrawal. Zebrafish embryos were treated with skin lightening compounds from 24-72 hpf followed by several washes to remove the compounds then incubated in […]. Twenty four hours after wash, the embryos were imaged.
Comparison of Skin-Lightening Compounds
It has been reported that melanin usually reappears after the withdrawal of skin lightening products. We studied this question by treating fish embryos from 24-72 hpf, according to Protocol 3, to create strong pigment reduction then wash off the compounds and track the pigment recovery. […] A drug with the ability to permanently remove or inhibit pigment might pose a concern of causing vitiligo.

“Also recorded” adds a separate entry of the source.

Regarding `O=c1cc(CO)occ1O` [kojic acid], the cell proliferation entry in [1] (concentration not given) was “significantly inhibit the melanocyte proliferation”. The tyrosinase inhibition result in data set [2] is given as “strong inhibition”. Also, in the data set with zebrafish embryos [3], the “inhibition of pigment formation” value is reported as “different degrees of pigment inhibition” and the “overall efficacy of the skin-lightening effects (rank order)” value (shortened to “overall efficacy”) is “PTU=phenoxidiol=A11=MoTP>Arbutin>Niacinamide>Tretinoin>kojic acid>gallic acid”. Moreover, in the data set with zebrafish embryos [4], the “reduction of existing pigment” value is given as “minimal or no pigment reduction”. The “melanin synthesis / melanin amount” value in [5] (concentration not given) is “significant reduction of melanin”.
In the case of `COc1cc(O)cc(/C=C/Oc2ccccc2C)c1` [A11, 2-Methylphenyl-E-(3-hydroxy-5-methoxy)-styryl ether], the cell proliferation entry in data set [1] (40 uM) was “slightly inhibited the melanoma cell proliferation; also recorded: significantly inhibit the melanocyte proliferation”. For the same molecule, the tyrosinase inhibition entry in data set [2] is given as “does not inhibit tyrosinase; also recorded: no inhibition at all”. Moreover, the “inhibition of pigment formation” value in the data set with zebrafish embryos [3] is “strong pigmentation inhibition”. Besides, the “overall efficacy” value with zebrafish embryos [3] was “PTU=phenoxidiol=A11=MoTP>Arbutin>Niacinamide>Tretinoin>kojic acid>gallic acid”. In addition, the “reduction of existing pigment” value in the data set on zebrafish embryos [4] was “strong and quick pigment reduction; also recorded: strong in reducing existing pigment; also recorded: strong reduction of existing pigment”. Moreover, in the data set with zebrafish embryos [6], the “apoptosis / overall cell death in treated embryos” value (“apoptosis / overall cell death” below) is recorded as “no significant cell death”. Besides, the “melanin synthesis / melanin amount” value is “no melanin reduction” in [5] (10 uM) and “slight reduction; also recorded: reduced” in data set [5] (40 uM). Further, the “dct mRNA expression” value in the data set on dct mRNA is “significantly lower expression of dct expression; also recorded: reduction of dct expression”. The “number of dct+ cells” value in [7] is “fewer dct-positive cells; also recorded: significant lower number of dct+ cells”.
Take `CC1=C(/C=C/C(C)=C/C=C/C(C)=C/C(=O)O)C(C)(C)CCC1` [tretinoin, Tretinoin]: the cell proliferation result in [1] (concentration not given) is “didn't seem to have any effect on melanocyte proliferation”. Further, in the data set on zebrafish embryos [3], the “inhibition of pigment formation” value was “different degrees of pigment inhibition” and the “overall efficacy” value is “PTU=phenoxidiol=A11=MoTP>Arbutin>Niacinamide>Tretinoin>kojic acid>gallic acid”. Also, in the data set on zebrafish embryos [4], the “reduction of existing pigment” value is listed as “minimal or no pigment reduction”. In the data set on zebrafish embryos [6], the “apoptosis / overall cell death” value is reported as “significant apoptosis”. Moreover, the “melanin synthesis / melanin amount” value in [5] (concentration not given) is given as “significant reduction of melanin”.
As for `OC[C@H]1O[C@@H](Oc2ccc(O)cc2)[C@H](O)[C@@H](O)[C@@H]1O` [arbutin, Arbutin], the cell proliferation entry in data set [1] (100 mM) is recorded as “significantly inhibit the melanocyte proliferation”. For the same molecule, the tyrosinase inhibition entry in data set [2] is on record as “strong inhibition”. Besides, in the data set with zebrafish embryos [3], the “inhibition of pigment formation” value was “different degrees of pigment inhibition” and the “overall efficacy” value is given as “PTU=phenoxidiol=A11=MoTP>Arbutin>Niacinamide>Tretinoin>kojic acid>gallic acid”. In addition, in the data set with zebrafish embryos [4], the “reduction of existing pigment” value was “moderately reduce existing pigment”. For the same molecule, in data set [5] (concentration not given), the “melanin synthesis / melanin amount” value was “significant reduction of melanin”. For the same molecule, in the data set on dct mRNA, the “dct mRNA expression” value was “slightly increase of dct expression”.
As for (2-Morpholinobutyl)-4-thiophenol [MoTP], the cell proliferation result in [1] (concentration not given) is listed as “killed all the melanoma cells; also recorded: significantly inhibit the melanocyte proliferation”. In data set [2], the tyrosinase inhibition result is recorded as “enhancement of tyrosinase activity”. In addition, in the data set on zebrafish embryos [3], the “inhibition of pigment formation” value is “strong pigmentation inhibition” and the “overall efficacy” value is “PTU=phenoxidiol=A11=MoTP>Arbutin>Niacinamide>Tretinoin>kojic acid>gallic acid”. Also, the “pigment recovery after chemical withdrawal” value (“pigment recovery” below) in the data set on zebrafish embryos [8] was “limited recovery”. Also, the “reduction of existing pigment” value with zebrafish embryos [4] is recorded as “moderately reduce existing pigment; also recorded: strong reduction of existing pigment”. In addition, in the data set on zebrafish embryos [6], the “apoptosis / overall cell death” value is reported as “slightly higher level of apoptosis; also recorded: slight increase of apoptosis”.
For `Oc1ccc(C2=Cc3ccc(O)cc3OC2)cc1` [phenoxidiol, phenoxidiol/haginin], the “inhibition of pigment formation” value in the data set on zebrafish embryos [3] is “strong pigmentation inhibition”. Further, the “overall efficacy” value with zebrafish embryos [3] was “PTU=phenoxidiol=A11=MoTP>Arbutin>Niacinamide>Tretinoin>kojic acid>gallic acid”. For the same molecule, the “pigment recovery” value in the data set on zebrafish embryos [8] is reported as “not so”. For the same molecule, the “reduction of existing pigment” value is given as “strong in reducing existing pigment” with zebrafish embryos [4] and “strong reduction of existing pigment” in the data set on zebrafish embryos [4] (listed as Phenoxidiol). Moreover, the “apoptosis / overall cell death” value in the data set with zebrafish embryos [6] is on record as “large increase of apoptosis; also recorded: significant apoptosis”. Also, the “dct mRNA expression” value in the data set with dct mRNA was “significantly lower expression of dct expression; also recorded: reduction of dct expression”. The “number of dct+ cells” value in data set [7] is listed as “fewer dct-positive cells; also recorded: significant lower number of dct+ cells”.
Take `NC(=O)c1cccnc1` [niacinamide, Niacinamide]: in the data set with zebrafish embryos [3], the “inhibition of pigment formation” value is listed as “different degrees of pigment inhibition” and the “overall efficacy” value is reported as “PTU=phenoxidiol=A11=MoTP>Arbutin>Niacinamide>Tretinoin>kojic acid>gallic acid”. Besides, the “apoptosis / overall cell death” value in the data set with zebrafish embryos [6] is listed as “significant apoptosis”. The “apoptosis / overall cell death” value with zebrafish embryos [6] (listed as Niacinamide) was “large increase of apoptosis”. Also, the “melanin synthesis / melanin amount” value in data set [5] (concentration not given) is given as “not”.
In the case of `N#CC(=C(N)Sc1ccccc1N)C(C#N)=C(N)Sc1ccccc1N` [MEK-I], in [1] (concentration not given), the cell proliferation entry is given as “didn't seem to have any effect on melanocyte proliferation”. Further, the “melanin synthesis / melanin amount” value in [5] (concentration not given) is given as “not”. In addition, the “dct mRNA expression” value in the data set with dct mRNA is given as “no change in dct expression”. Besides, the “number of dct+ cells” value in data set [7] was “no effect on the number of dct expressing cells and not”.
Regarding `NC(=S)Nc1ccccc1` [PTU, phenylthiourea], the cell proliferation entry in [1] (concentration not given) is “didn't seem to have any effect on melanocyte proliferation”. Moreover, the tyrosinase inhibition result in [2] is reported as “strong inhibition”. In addition, in the data set with zebrafish embryos [3], the “inhibition of pigment formation” value is “strong pigmentation inhibition” and the “overall efficacy” value is reported as “PTU=phenoxidiol=A11=MoTP>Arbutin>Niacinamide>Tretinoin>kojic acid>gallic acid”. In addition, in the data set with zebrafish embryos [8], the “pigment recovery” value is listed as “not so”. In the data set on zebrafish embryos [4], the “reduction of existing pigment” value was “moderately reduce existing pigment”. The “melanin synthesis / melanin amount” value in data set [5] (concentration not given) is listed as “significant reduction of melanin”. The “dct mRNA expression” value in the data set with dct mRNA is “slightly increase of dct expression”. The “number of dct+ cells” value in [7] is recorded as “no effect on the number of dct expressing cells”.
For the molecule `O=C(O)c1cc(O)c(O)c(O)c1` [gallic acid], in data set [2], the tyrosinase inhibition entry is “enhancement of tyrosinase activity”. Moreover, in the data set with zebrafish embryos [3], the “inhibition of pigment formation” value was “different degrees of pigment inhibition” and the “overall efficacy” value is reported as “PTU=phenoxidiol=A11=MoTP>Arbutin>Niacinamide>Tretinoin>kojic acid>gallic acid”.
